Source: publication PMC12037410, “Pharmacological targeting of BMAL1 modulates circadian and immune pathways” (Nature Chemical Biology, 2025)
Residues, ends and D or L forms follow the SMILES beside them.

Target: BMAL1 (Homo sapiens, UniProt O00327)
Set-up: PASB domain (residues 338–449); Protein thermal shift (PTS) fragment screen on recombinant human BMAL1(PASB), shift of melting temperature
Conditions: dTmB; binder

Sequence of BMAL1 (O00327 338-449): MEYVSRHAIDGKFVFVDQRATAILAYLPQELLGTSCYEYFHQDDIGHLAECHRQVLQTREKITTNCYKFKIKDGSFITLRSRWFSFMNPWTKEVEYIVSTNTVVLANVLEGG

| SMILES | Bmal1(PASB) dTmB |
| --- | --- |
| COc1ccc(CC(C)N)cc1 (stereo not shown) [Prestw-Frag-3342, Compound 241] | -0.24 °C |
| Nc1nc(N)nc(-c2ccccc2)n1 [Prestw-Frag-3190, Compound 387] | -0.27 °C |
| OCC(O)COc1ccccc1 (stereo not shown) [Prestw-Frag-1337, Compound 306] | 0.63 °C |
| Oc1ccccc1N1CCNCC1 [Prestw-Frag-3738, Compound 34] | 0.10 °C |
| Cc1ccccc1-c1ccccc1CO [Prestw-Frag-1923, Compound 451] | -1.24 °C |
| NC(=O)Cc1ccccn1 [Prestw-Frag-1971, Compound 173] | -0.17 °C |
| CN1CCNCC1=O [Prestw-Frag-3460, Compound 125] | 0.00 °C |
| OCc1cccnc1 [Prestw-Frag-2304, Compound 272] | -0.06 °C |
| COc1ccc(CN2CCNCC2)cc1 [Prestw-Frag-2212, Compound 304] | -0.50 °C |
| CS(=O)(=O)Nc1ccccc1Oc1ccccc1 [Prestw-Frag-1861, Compound 432] | -1.83 °C |
| O=C(O)c1cccnc1 [Prestw-Frag-2541, Compound 64] | -0.10 °C |
| Nc1nc2c(s1)CCCC2 [Prestw-Frag-2972, Compound 480] | -5.59 °C |
| NC1=NCCN1 [Prestw-Frag-1268, Compound 246] | -0.47 °C |
| NC1CCc2[nH]c3ccccc3c2C1 (stereo not shown) [Prestw-Frag-3709, Compound 361] | 1.14 °C |
| Nc1ccc2c(c1)CCCC2 [Prestw-Frag-3682, Compound 71] | 0.33 °C |
| O=C(O)c1cc(-c2ccccc2)ccc1O [Prestw-Frag-1240, Compound 74] | -0.48 °C |
| C#Cc1cccc(N)c1 [Prestw-Frag-3669, Compound 7] | -3.75 °C |
| c1ccc(CC2NCCc3ccccc32)cc1 (stereo not shown) [Prestw-Frag-1444, Compound 267] | -1.30 °C |
| Cc1oncc1C(N)=O [Prestw-Frag-1128, Compound 133] | -0.10 °C |
| Nc1ccnc2ccccc12 [Prestw-Frag-1878, Compound 323] | -0.67 °C |
| CC(=O)c1ccc(O)cc1O [Prestw-Frag-2506, Compound 162] | 0.21 °C |
| COC(=O)C(CO)c1ccccc1 (stereo not shown) [Prestw-Frag-1406, Compound 266] | -0.21 °C |

| SMILES | Bmal1(PASB) dTmB |
| --- | --- |
| O=C(O)c1ccccc1Nc1cccc(Cl)c1 [Prestw-Frag-1319, Compound 28] | -2.88 °C |
| NCC1(c2ccccc2)CC1 [Prestw-Frag-3751, Compound 367] | -0.24 °C |
| c1ccc(-c2nn[nH]n2)cc1 [Prestw-Frag-2887, Compound 426] | 0.51 °C |
| OC(c1ccccc1)c1ccccn1 (stereo not shown) [Prestw-Frag-2238, Compound 262] | -0.66 °C |
| CN1CCN(c2ccc(N)cc2)CC1 [Prestw-Frag-3670, Compound 20] | 0.65 °C |
| O=C1c2nccnc2C(O)N1c1ccc(Cl)cn1 (stereo not shown) [Prestw-Frag-3046, Compound 93] | -0.98 °C |
| Cc1cc(C2CCCCC2)n(O)c(=O)c1 [Prestw-Frag-2092, Compound 58] | -1.46 °C |
| COc1ccccc1OCCCO [Prestw-Frag-1335, Compound 370] | 4.16 °C |
| CC(=O)c1cc(Cl)ccc1O [Prestw-Frag-1083, Compound 280] | -0.22 °C |
| O=C(O)c1cc(=O)c2ccccc2o1 [Prestw-Frag-2352, Compound 352] | -0.25 °C |
| Nc1cccnn1 [Prestw-Frag-2072, Compound 233] | -0.18 °C |
| O=C1NCN(c2ccccc2)C12CCNCC2 [Prestw-Frag-1869, Compound 339] | -0.72 °C |
| O=C(c1ccccc1)c1ccccc1 [Prestw-Frag-1860, Compound 423] | -0.99 °C |
| C[C@H](N)C(=O)N1CCC[C@H]1C(=O)O [Prestw-Frag-1275, Compound 264] (H-Ala-Pro-OH) | -0.70 °C |
| COc1ccc(CCN(C)C)cc1OC [Prestw-Frag-1445, Compound 247] | -0.12 °C |
| CC(Oc1ccccc1)C(N)=O (stereo not shown) [Prestw-Frag-1200, Compound 240] | -0.43 °C |
| O=C1CCOc2ccccc21 [Prestw-Frag-1740, Compound 360] | -0.05 °C |
| COC(=O)c1ccc(N)cc1 [Prestw-Frag-2346, Compound 380] | -0.11 °C |
| CC(C)C1NCCc2c1[nH]c1ccccc21 (stereo not shown) [Prestw-Frag-1264, Compound 134] | -1.09 °C |
| Cc1nc2ccccc2[nH]1 [Prestw-Frag-2136, Compound 408] | -0.37 °C |
| CC(O)(c1ccccc1)c1ccccn1 (stereo not shown) [Prestw-Frag-2237, Compound 355] | -0.76 °C |
| OCc1ccc2c(c1)OCO2 [Prestw-Frag-3741, Compound 372] | -0.20 °C |

| SMILES | Bmal1(PASB) dTmB |
| --- | --- |
| COc1cc2c(cc1OC)C(C)N(C)CC2 (stereo not shown) [Prestw-Frag-1273, Compound 218] | -0.29 °C |
| CN(C)CCNC(=O)c1ccc(N)cc1 [Prestw-Frag-2031, Compound 430] | -0.84 °C |
| NNC(=O)c1ccccc1 [Prestw-Frag-1420, Compound 187] | -0.31 °C |
| O=c1ccn([C@H]2C[C@H](O)[C@@H](CO)O2)c(=O)[nH]1 [Prestw-Frag-2769, Compound 275] | 0.09 °C |
| NC(=O)N1CCNCC1 [Prestw-Frag-3723, Compound 152] | 0.03 °C |
| CC(C)(CN)c1ccccc1 [Prestw-Frag-3733, Compound 285] | -0.30 °C |
| NS(=O)(=O)c1ccccc1 [Prestw-Frag-1895, Compound 148] | -0.29 °C |
| O=C(O)CC1CCCCC1 [Prestw-Frag-3668, Compound 169] | 0.13 °C |
| NC(=O)c1ccc2[nH]ccc2c1 [Prestw-Frag-3336, Compound 449] | -0.81 °C |
| Cc1c[nH]c(=O)[nH]c1=O [Prestw-Frag-2017, Compound 255] | -0.13 °C |
| Oc1ccc(Cc2ccccc2)cc1 [Prestw-Frag-3455, Compound 469] | -2.61 °C |
| CCCCOc1cc(C(=O)OC)ccc1N [Prestw-Frag-2253, Compound 206] | -0.90 °C |
| CCN1CCCC1CN (stereo not shown) [Prestw-Frag-3671, Compound 99] | -0.56 °C |
| Clc1cccc2ncccc12 [Prestw-Frag-2593, Compound 66] | -0.75 °C |
| CCC1=C(C)CN(C(=O)NCCc2ccccc2)C1=O [Prestw-Frag-1075, Compound 420] | -0.68 °C |
| NCc1ncc[nH]1 [Prestw-Frag-3689, Compound 15] | -1.37 °C |
| c1ccc(Cn2ccnc2)cc1 [Prestw-Frag-2620, Compound 329] | -0.49 °C |
| C[C@H]1NC(=O)NC1=O [Prestw-Frag-1311, Compound 224] | -0.36 °C |
| O=C1CCc2ccccc2N1 [Prestw-Frag-2464, Compound 16] | -2.13 °C |
| Nc1ccnn1-c1ccccc1 [Prestw-Frag-1648, Compound 208] | -0.34 °C |
| CS(=O)(=O)Nc1ccccc1 [Prestw-Frag-2755, Compound 281] | -0.10 °C |
| OC1CCN(c2ccccc2F)CC1 [Prestw-Frag-2803, Compound 151] | -0.09 °C |

| SMILES | Bmal1(PASB) dTmB |
| --- | --- |
| OCc1cc(O)cc(O)c1 [Prestw-Frag-1935, Compound 76] | -0.85 °C |
| Nc1ccccn1 [Prestw-Frag-2443, Compound 228] | 0.09 °C |
| NCCCCc1ccccc1 [Prestw-Frag-1031, Compound 371] | -0.34 °C |
| Nc1ccc(CS(=O)(=O)N2CCCC2)cc1 [Prestw-Frag-3341, Compound 142] | -0.24 °C |
| CC(C)NCC(O)c1ccccc1 (stereo not shown) [Prestw-Frag-2168, Compound 193] | -0.58 °C |
| O=c1[nH]cncc1-c1ccccc1 [Prestw-Frag-3734, Compound 254] | -0.26 °C |
| Clc1ccc(C(c2ccccc2)N2CCNCC2)cc1 (stereo not shown) [Prestw-Frag-1741, Compound 476] | -4.68 °C |
| COc1ccc(OCC(N)=O)cc1 [Prestw-Frag-1812, Compound 300] | 0.07 °C |
| O=c1[nH]c2ccccc2o1 [Prestw-Frag-1087, Compound 245] | -0.27 °C |
| Cn1cc(CC(=O)O)c2ccccc21 [Prestw-Frag-3461, Compound 75] | -0.44 °C |
| O=C(O)c1ccccc1O [Prestw-Frag-1045, Compound 55] | -0.68 °C |
| NC(=O)c1ccccc1O [Prestw-Frag-1439, Compound 86] | 0.06 °C |
| NC(=O)[C@H](N)c1ccccc1 [Prestw-Frag-1099, Compound 271] | -0.22 °C |
| Cc1ccc(C#N)c(=O)[nH]1 [Prestw-Frag-2669, Compound 177] | -0.34 °C |
| CCC(=O)NC1=NC=NC2=NC=NC21 (stereo not shown) [Prestw-Frag-1047, Compound 47] | -0.65 °C |
| CNS(=O)(=O)c1ccccc1 [Prestw-Frag-2023, Compound 256] | -0.20 °C |
| CCCC(=O)Nc1ccc(O)c(C(C)=O)c1 [Prestw-Frag-1716, Compound 95] | -1.04 °C |
| COCCOC(=O)c1ccc(N)cc1 [Prestw-Frag-2453, Compound 317] | -0.58 °C |
| O=c1[nH]nc2ccccn12 [Prestw-Frag-1673, Compound 287] | -1.05 °C |
| COc1ccc(CCN)cc1O [Prestw-Frag-1064, Compound 320] | -0.32 °C |
| OCCn1cncn1 [Prestw-Frag-3101, Compound 350] | 0.19 °C |
| NC1CCc2ccccc21 (stereo not shown) [Prestw-Frag-3462, Compound 90] | -0.81 °C |
